Entries after “also recorded” stand apart in the source; their conditions may differ.
Tests used:
[1] = biological target: phospho p44/p42 MAP kinase; assay: Dose response curve of RB5 for ERK activation in striatal slices; type: cell-based, mouse; details: 200 μm striatal slices, 1 h pre-treatment; read-out: EC50 for enhancing pERK (phospho-ERK positive cells)
Procedure: a) RB5 peptide selectively promoted activation of ERK2. Acute striatal slices either pre-treated with Scramble (SCR) or RB5 peptide (50 μM) and then stimulated 10 minutes with glutamate (GLU) (100 μM) or vehicle were analysed in Western blot (left panel) and probed with anti phospho ERK antibodies (p44^ERK1 and p42^ERK2) and anti ERK1/2 antibody. GAPDH was used as loading control. […] No changes were detected in the total ERK1 and ERK2 levels. GAPDH was used as loading control. […] Mice injected with a single dose of CPP-SCR or CPP-RB5 peptides (20 mg/kg, i.p.) were rapidly perfused 1 h later and brains were dissected and further analysed for IHC and immunofluorescence. Representative photomicrographs of pERK1/2, pMSK, pAch3, pELK1 and c-Fos expression in the striatum. […] Two-way ANOVA Bonferroni post hoc comparison: one black star, p<0.05, two black stars, p<0.01, one white star, p<0.001. p) Dose response curve of RB5 peptide for ERK activation. 200 μm thick striatal slices were freshly prepared from 2-month old mice and transferred into a perfusion chamber for 1 h at 32° C. Slices were pre-treated with different doses of RB5 or scrambled control. After 1 h, slices for each dose was fixed in PFA 4% for 15 min. […] Neuronal quantification was performed with ImageJ software by counting the number of phospho-ERK positive cells in each slice. […] The EC50 was calculated using GraphPad Prism software.

ERK1/MAPK3 = assay: Single in vivo administration in ERK1 KO versus ERK1 WT mice; set-up: species or system mouse
Procedure: a) RB5 peptide selectively promoted activation of ERK2. Acute striatal slices either pre-treated with Scramble (SCR) or RB5 peptide (50 μM) and then stimulated 10 minutes with glutamate (GLU) (100 μM) or vehicle were analysed in Western blot (left panel) and probed with anti phospho ERK antibodies (p44^ERK1 and p42^ERK2) and anti ERK1/2 antibody. GAPDH was used as loading control. […] No changes were detected in the total ERK1 and ERK2 levels. GAPDH was used as loading control. […] Mice injected with a single dose of CPP-SCR or CPP-RB5 peptides (20 mg/kg, i.p.) were rapidly perfused 1 h later and brains were dissected and further analysed for IHC and immunofluorescence. Representative photomicrographs of pERK1/2, pMSK, pAch3, pELK1 and c-Fos expression in the striatum. […] Two-way ANOVA Bonferroni post hoc comparison: one black star, p<0.05, two black stars, p<0.01, one white star, p<0.001. p) Dose response curve of RB5 peptide for ERK activation. 200 μm thick striatal slices were freshly prepared from 2-month old mice and transferred into a perfusion chamber for 1 h at 32° C. Slices were pre-treated with different doses of RB5 or scrambled control. After 1 h, slices for each dose was fixed in PFA 4% for 15 min. 18 μm cryo-sections were processed for immunohistochemistry with anti-phospho p44/p42 MAP kinase. Neuronal quantification was performed with ImageJ software by counting the number of phospho-ERK positive cells in each slice. The level of activation is expressed on the Y-axis as arbitrary units (AU). Doses are reported in a logarithmic scale (Log 10) on the X-axis. The EC50 was calculated using GraphPad Prism software.
ERK1 male KO and littermate controls, were generated as described previously and were used for ex vivo analysis.
Mice pre-treated with a single dose of CPP-RB5 or CPP-SCR (20 mg/kg) were perfused 1 h later and brain slices were processed for nuclear and cytoplasmic markers.

HdhQ111 mice = assay: HdhQ111 genetic mouse model of Huntington's disease; type: in vivo
Procedure: WT and HdhQ111 mice were treated with CPP-RB5 or Scramble (CPP-SCR) peptides (20 mg/kg i.p.) for 8 days.
Two-way ANOVA Bonferroni post-hoc comparison ***p<0.001.
HdhQ111 heterozygous mice (Jax®, Bar Harbour, Me., U.S.A.), zQ175 knock-in heterozygous (mix sex) carrying between 180 and 195 CAG repeats (CHDI-81003003, Psychogenics, Inc. Tarrytown, N.Y.) and Tg2576 transgenic male mice (C57BL6 and SLJ mix background, Taconic Biosciences) were used for IHC, IF and behavioural test.
We also evaluated the potential neuroprotective effect of RB5, in hdhQ111 transgenic mice, a late onset genetic model of Huntington's Disease. hdhQ111 mice were treated (20 mg/kg, i.p., twice a day) for 7 days (FIG. 5).

MPTP treated mice = assay: Subacute MPTP mouse model of Parkinson's Disease; type: in vivo; details: 4 days
Procedure: Adult mice were treated with MPTP or vehicle (20 mg/kg i.p.) for 4 days. […] Two-way ANOVA Bonferroni post-hoc comparison *p<0.05**p<0.01.
Two-way ANOVA Bonferroni post-hoc comparison *p<0.05**p<0.01
We have assessed the neuroprotective effect of RB5 in the MPTP (1-methyl-4-phenyl-1,2,3,6-tetrahydropyridine) neurotoxin model of Parkinson's Disease (FIG. 6). Mice have been treated with MPTP or vehicle (20 mg/kg, i.p) for 4 days. RB5 or scramble peptide (20 mg/kg, i.p) was injected 1 h before MPTP/vehicle.

Tg2576 mice = assay: Tg2576 mouse model of Alzheimer's Disease, neuroprotection; type: in vivo; details: 20 mg/kg i.p., 7 days
Procedure: Two-way ANOVA Bonferroni post-hoc comparison **p<0.01***p<0.001.
The genetic model of Alzheimer's Disease Tg2576 and their WT controls have been treated for 7 days with RB5/scramble peptide (20 mg/kg, i.p).

zQ175 mice = assay: Nose poke training (FR1) in 9-hole operant boxes, zQ175 model of Huntington's Disease; type: in vivo, mouse
Procedure: WT and zQ175 mice underwent daily 20 minutes nose poke training for 10 consecutive days (days 1-10) on a simple fixed ratio (FR1) schedule of reinforcement. Starting from day 11 mice received one administration of RB5 (20 mg/kg. i.p.) 1 h before the nose poke training. […] White star P<0.0001.
Operant testing was conducted in 16 9-hole operant boxes. Each operant box contains a horizontal array of nine holes with infrared beams localised to the front of each hole to detect nose pokes. A peristaltic pump delivers liquid reinforcement (strawberry milk) into a magazine at the front of the box.
A week before starting the training, mice undergo water restriction for 18 hours/day and are kept under this regimen throughout the experimental procedures. Mice are taught to nose poke on a simple fixed ratio (FR1) schedule of reinforcement: to obtain reward, mice are required to respond to a stimulus light in the central hole via a single nose poke. Mice are trained daily on this program during 20 minutes sessions for 10 days (training phase). Once trained, animals were subdivided in 4 groups and injected with RB5 or scramble (10 mg/kg, i.p.) peptides 1 hour before being tested on FR1 schedule for other 9 days.

**Q.** What does the source list for CSCC[C@H](NC(=O)[C@H](CCC(=O)O)NC(=O)[C@@H](NC(=O)[C@H](CCC(=O)O)NC(=O)CNC(=O)[C@@H]1CCCN1C(=O)[C@@H](NC(=O)CNC(=O)[C@@H]1CCCN1C(=O)CNC(=O)[C@@H](NC(=O)CNC(=O)[C@H](CCC(=O)O)NC(=O)[C@@H](NC(=O)[C@H](CCCNC(=N)N)NC(=O)[C@H](CCCNC(=N)N)NC(=O)[C@@H]1CCCN1C(=O)[C@H](CCC(=O)O)NC(=O)CNC(=O)CNC(=O)CNC(=O)CNC(=O)CNC(=O)[C@H](CCC(N)=O)NC(=O)[C@@H]1CCCN1C(=O)[C@@H]1CCCN1C(=O)[C@H](CCCNC(=N)N)NC(=O)[C@H](CCCNC(=N)N)NC(=O)[C@H](CCCNC(=N)N)NC(=O)[C@H](CCC(N)=O)NC(=O)[C@H](CCCNC(=N)N)NC(=O)[C@H](CCCNC(=N)N)NC(=O)[C@H](CCCCN)NC(=O)[C@H](CCCCN)NC(=O)[C@H](CCCNC(=N)N)NC(=O)CNC(C)=O)[C@@H](C)O)C(C)C)C(C)C)C(C)C)C(=O)N[C@H](C(=O)N[C@@H](CCCCN)C(=O)NCC(=O)N[C@@H](CCC(N)=O)C(=O)N1CCC[C@H]1C(=O)N[C@@H](Cc1ccccc1)C(=O)N[C@@H](CC(=O)O)C(=O)N[C@@H](C(=O)O)C(C)C)C(C)C [RB5]?
**A.** EC50 [1]: 3.4 µM; pERK, pAcH3 (and pS6) (ERK1/MAPK3; ERK1 KO mice, single administration): did not alter; also recorded: did not reach the statistical significance; pERK and pAcH3 (ERK1/MAPK3; ERK1 WT mice, single administration): significant activation; phosphorylation of S6 (ERK1/MAPK3; ERK1 WT vs ERK1 KO mice): comparable in both genotypes; degeneration in the hdhQ111 mutants (HdhQ111 mice; 20 mg/kg i.p. twice a day, 7 days): prevents degeneration; ERK activation (pERK) in striatum (HdhQ111 mice; 20 mg/kg i.p., 8 days): elevated pERK in WT and mutant striata; also recorded: significant enhancement of ERK activation; apoptotic cells (TUNEL, dorsal striatum) (HdhQ111 mice; HdhQ111 mice, 20 mg/kg i.p., vs Scramble): significant reduction of apoptotic cells; pre-apoptotic state (Cleaved Caspase-3) (HdhQ111 mice; hdhQ111 mice, 20 mg/kg i.p.): significant reduction of pre-apoptotic state; TH loss in Substantia Nigra (MPTP treated mice; 20 mg/kg i.p. 1 h before MPTP 20 mg/kg): significant reduction of TH loss; apoptotic cells (TUNEL, nigral neurones) (MPTP treated mice; 20 mg/kg i.p. 1 h before MPTP): significant reduction of apoptotic cells; neurodegeneration (TH, TUNEL, cleaved caspase 3) (MPTP treated mice; 20 mg/kg i.p. 1 h before MPTP): Neurodegeneration was prevented; pre-apoptotic state (Cleaved Caspase-3) (MPTP treated mice; 20 mg/kg i.p. 1 h before MPTP): significant reduction of the pre-apoptotic state; ERK activation (pERK) in hippocampal CA1 and Dentate Gyrus (Tg2576 mice): increased pERK; also recorded: significant enhancement of ERK activation; pre-apoptotic state (Cleaved Caspase-3 staining) (Tg2576 mice): reduced the levels of cleaved caspase-3 staining; also recorded: significant reduction of the pre-apoptotic state; nose poke performances / responses (zQ175 mice; WT and zQ175 female mice, 9 days of RB5 treatment): significant enhancement of the responses; also recorded: improved performances; nose poke responding (zQ175 mice; zQ175 female mice, 20 mg/kg i.p. 1 h before training from day 11): significantly improved

Source: US11471502B2, “Neuroprotective peptide” (UNIVERSITY COLLEGE CARDIFF C[…], priority 2017, dated 2022)
